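Method: 48-hour compound exposure of cells in 96-well plates, five concentrations, linear interpolation of endpoints. GI50 is the concentration that inhibits growth by half.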 Calls of active or inactive are those of the source. No stated cut-off is given here; in the data, active = GI50 up to about 1.1 µM and inactive = higher. Where a SMILES comes first, the peptide text is derived from it. The star is where a group is joined. Boc = CC(C)(C)OC(=O)*
Key:
Experiment in all cases: inhibition of tumour cell growth, NCI panel, 48 h
BT-549 = system: BT-549
UO-31 = system: UO-31
NCI-H460 = system: NCI-H460
LOX IMVI = system: LOX IMVI
NCI-H522 = system: NCI-H522
K562 = system: K562
NCI-H226 = system: NCI-H226
T47D = system: T47D
SK-MEL-5 = system: SK-MEL-5
HT-29 = system: HT-29
HOP-92 = system: HOP-92
A549 = system: A549
MDA-MB-231 = system: MDA-MB-231
NCI-H23 = system: NCI-H23
HCT-15 = system: HCT-15
HCC 2998 = system: HCC 2998
SF-539 = system: SF-539
SN12C = system: SN12C
HCT-116 = system: HCT-116

Row | Compound | GI50 (BT-549) | GI50 (UO-31) | GI50 (NCI-H460) | GI50 (LOX IMVI) | GI50 (NCI-H522) | GI50 (K562) | GI50 (NCI-H226) | GI50 (T47D) | GI50 (SK-MEL-5) | GI50 (HT-29) | GI50 (HOP-92) | GI50 (A549) | GI50 (MDA-MB-231) | GI50 (NCI-H23) | GI50 (HCT-15) [µM] | GI50 (HCC 2998) | GI50 (SF-539) | GI50 (SN12C) | GI50 (HCT-116)
1 | c1ccc2sc(SCN(C3CCCCC3)C3CCCCC3)nc2c1 | > 100 µM (inactive) | > 100 µM (inactive) | > 100 µM (inactive) | > 100 µM (inactive) | > 100 µM (inactive) | > 100 µM (inactive) | > 100 µM (inactive) | 15.1 µM (inactive) | > 100 µM (inactive) | > 100 µM (inactive) | > 100 µM (inactive) | > 100 µM (inactive) | > 100 µM (inactive) | > 100 µM (inactive) | > 100 | > 100 µM (inactive) |  |  | 
2 | CCC1NC(=O)C(NC(=O)c2ncccc2O)C(C)OC(=O)C(c2ccccc2)NC(=O)C2CC(=O)CCN2C(=O)C(Cc2ccccc2)N(C)C(=O)C2CCCN2C1=O (centres undefined) | > 100 µM (inactive) | > 100 µM (inactive) | > 100 µM (inactive) | > 100 µM (inactive) | > 100 µM (inactive) | > 100 µM (inactive) | > 100 µM (inactive) | > 100 µM (inactive) | > 100 µM (inactive) | > 100 µM (inactive) | > 100 µM (inactive) | > 100 µM (inactive) | > 100 µM (inactive) | > 100 µM (inactive) | > 100 | > 100 µM (inactive) | > 100 µM (inactive) | > 100 µM (inactive) | > 100 µM (inactive)
3 | O=C1CCC(CCc2nc3ccccc3[nH]2)(c2ccccc2)C(=O)N1 (centres undefined) | > 100 µM (inactive) | 20.2 µM (inactive) | > 100 µM (inactive) | > 100 µM (inactive) | 47.4 µM (inactive) | 64 µM (inactive) | > 100 µM (inactive) | > 100 µM (inactive) | > 100 µM (inactive) | > 100 µM (inactive) | 83.6 µM (inactive) | > 100 µM (inactive) | > 100 µM (inactive) | > 100 µM (inactive) | > 100 | > 100 µM (inactive) | > 100 µM (inactive) | > 100 µM (inactive) | > 100 µM (inactive)
4 | CO/N=C1\CC(NC(=O)C(F)(F)F)c2ccsc21 (centres undefined) | > 100 µM (inactive) | > 100 µM (inactive) | > 100 µM (inactive) | > 100 µM (inactive) |  | > 100 µM (inactive) | > 100 µM (inactive) | > 100 µM (inactive) | > 100 µM (inactive) | > 100 µM (inactive) | > 100 µM (inactive) | > 100 µM (inactive) | > 100 µM (inactive) | > 100 µM (inactive) | > 100 | > 100 µM (inactive) | > 100 µM (inactive) | > 100 µM (inactive) | > 100 µM (inactive)
5 | COc1ccc(-c2cc(-c3ccccc3)nc(N)c2-c2ccc3ccccc3c2)cc1 | 1.64 µM (inactive) | 1.99 µM (inactive) | 1.52 µM (inactive) | 1.72 µM (inactive) | < 0.01 µM (active) | 2.94 µM (inactive) | 1.5 µM (inactive) | 1.69 µM (inactive) | 1.77 µM (inactive) | 1 µM (active) | 1.5 µM (inactive) | 2.21 µM (inactive) | 1.6 µM (inactive) | 1.86 µM (inactive) | 1.54 | 1.83 µM (inactive) | 2.1 µM (inactive) | 1.86 µM (inactive) | 1.24 µM (inactive)
6 | CC(=O)OCC1OC(N2C(C)=C(C(C)=O)C(c3ccco3)C(C#N)=C2S)C(OC(C)=O)C(OC(C)=O)C1OC(C)=O (centres undefined) | > 100 µM (inactive) | 81.1 µM (inactive) | > 100 µM (inactive) | > 100 µM (inactive) | > 100 µM (inactive) | > 100 µM (inactive) | > 100 µM (inactive) | 78.7 µM (inactive) | > 100 µM (inactive) | > 100 µM (inactive) | > 100 µM (inactive) | > 100 µM (inactive) | > 100 µM (inactive) | > 100 µM (inactive) | > 100 | > 100 µM (inactive) | > 100 µM (inactive) | > 100 µM (inactive) | > 100 µM (inactive)
7 | Cc1ccc(CC(Cc2ccc(C)cc2C(=O)O)C(=O)O)cc1 (centres undefined) | > 100 µM (inactive) | > 100 µM (inactive) | > 100 µM (inactive) | > 100 µM (inactive) | > 100 µM (inactive) |  | > 100 µM (inactive) | > 100 µM (inactive) | > 100 µM (inactive) | > 100 µM (inactive) | > 100 µM (inactive) | > 100 µM (inactive) | > 100 µM (inactive) | > 100 µM (inactive) | > 100 | > 100 µM (inactive) | > 100 µM (inactive) | > 100 µM (inactive) | > 100 µM (inactive)
8 | C\C(=N/N=C1/C(=C\N(C)C)C(=O)NC(=O)N1C)c1ccc(Cl)cc1 | > 100 µM (inactive) | > 100 µM (inactive) | > 100 µM (inactive) | 58.2 µM (inactive) | 62.2 µM (inactive) | > 100 µM (inactive) | 68.5 µM (inactive) | 82.4 µM (inactive) | > 100 µM (inactive) | > 100 µM (inactive) | > 100 µM (inactive) | 87.7 µM (inactive) | > 100 µM (inactive) | > 100 µM (inactive) | > 100 | > 100 µM (inactive) | > 100 µM (inactive) | > 100 µM (inactive) | 74.1 µM (inactive)
9 | O=C1C(Cl)=C(NCCc2ccc(O)cc2)C(=O)c2c(O)ccc(O)c21 | > 10 µM (inactive) |  | 7.46 µM (inactive) | 7.66 µM (inactive) | > 10 µM (inactive) | > 10 µM (inactive) | > 10 µM (inactive) | > 10 µM (inactive) | 3.72 µM (inactive) | 4.27 µM (inactive) | > 10 µM (inactive) | > 10 µM (inactive) | > 10 µM (inactive) | > 10 µM (inactive) | > 10 | > 10 µM (inactive) | 6.58 µM (inactive) | > 10 µM (inactive) | 8.2 µM (inactive)
10 | CCC1=NC(N/N=C/c2ccccc2O)=N/C1=C\c1ccccc1O | 12.1 µM (inactive) | 2.7 µM (inactive) | 2.57 µM (inactive) | 5.61 µM (inactive) | 6.43 µM (inactive) | 12.2 µM (inactive) | 22.1 µM (inactive) | 12.1 µM (inactive) | 19.5 µM (inactive) | 4.81 µM (inactive) | 21.1 µM (inactive) | 12.9 µM (inactive) | 36.3 µM (inactive) | 14.4 µM (inactive) | 2.07 | 10.2 µM (inactive) |  | 21.3 µM (inactive) | 7.59 µM (inactive)
11 | CN(NC(=O)c1cccs1)C1=NCCCCN1 | > 100 µM (inactive) | > 100 µM (inactive) | > 100 µM (inactive) | > 100 µM (inactive) | > 100 µM (inactive) | > 100 µM (inactive) | > 100 µM (inactive) | > 100 µM (inactive) | > 100 µM (inactive) | > 100 µM (inactive) | > 100 µM (inactive) | > 100 µM (inactive) | > 100 µM (inactive) | > 100 µM (inactive) | > 100 | > 100 µM (inactive) | > 100 µM (inactive) |  | > 100 µM (inactive)
12 | N=c1c2c(=S)n(-c3ccccc3)c(=S)n(-c3ccccc3)c2nc(SCCN2CCCC2)n1-c1ccccc1 | 1.92 µM (inactive) |  | 1.72 µM (inactive) | 1.63 µM (inactive) | 1.72 µM (inactive) | 0.762 µM (active) | 7.59 µM (inactive) | 2.8 µM (inactive) | 3.27 µM (inactive) | 1.81 µM (inactive) | 1.71 µM (inactive) | 2.39 µM (inactive) | 1.78 µM (inactive) | 2.9 µM (inactive) | 1.6 | 1.31 µM (inactive) | 5.02 µM (inactive) | 1.86 µM (inactive) | 2.09 µM (inactive)
13 | COC(=O)C1Cc2ccc(O)c(O)c2CN1 (centres undefined) | 18.3 µM (inactive) | 22.5 µM (inactive) | 56.9 µM (inactive) | 14.8 µM (inactive) | > 100 µM (inactive) | 28.8 µM (inactive) | > 100 µM (inactive) | 71.9 µM (inactive) | 15.1 µM (inactive) | 23.3 µM (inactive) | 26.4 µM (inactive) | > 100 µM (inactive) | 19.8 µM (inactive) | 16.6 µM (inactive) | 29.7 | > 100 µM (inactive) | 18.4 µM (inactive) | 16.4 µM (inactive) | 23.7 µM (inactive)
14 | O=c1cc(O)c2c(O)cc(O)cc2o1 | > 100 µM (inactive) |  | > 100 µM (inactive) | > 100 µM (inactive) | > 100 µM (inactive) | > 100 µM (inactive) | > 100 µM (inactive) | > 100 µM (inactive) | > 100 µM (inactive) | > 100 µM (inactive) | > 100 µM (inactive) | > 100 µM (inactive) | > 100 µM (inactive) | > 100 µM (inactive) | > 100 | > 100 µM (inactive) | > 100 µM (inactive) | > 100 µM (inactive) | > 100 µM (inactive)
15 | COC(=O)C(C)NC(=O)C(CCSC)NC(=O)C(Cc1ccccc1)NC(=O)OC(C)(C)C (stereo not drawn) (Boc-Phe-Met-Ala-OMe; configuration not given here) | > 100 µM (inactive) | > 100 µM (inactive) | > 100 µM (inactive) | > 100 µM (inactive) | > 100 µM (inactive) |  | > 100 µM (inactive) | > 100 µM (inactive) | > 100 µM (inactive) | > 100 µM (inactive) | > 100 µM (inactive) | > 100 µM (inactive) | > 100 µM (inactive) | > 100 µM (inactive) | > 100 | > 100 µM (inactive) | > 100 µM (inactive) | > 100 µM (inactive) | > 100 µM (inactive)
